Experiment [1] has as its system recombinant guanylate cyclase reporter cell line. The experiment in a line: Effect on a recombinant guanylate cyclase reporter cell line. Particulars: recombinant guanylate cyclase reporter cell line (Wunder et al. 2005); read-out: MEC (minimum effective concentration). The format is cell-based. As for the experimental part:
B-2. Effect on a Recombinant Guanylate Cyclase Reporter Cell Line
The cellular activity of the compounds according to the invention is determined using a recombinant guanylate cyclase reporter cell line, as described in F. Wunder et al., Anal. Biochem. 339, 104-112 (2005).

Another experiment relates to rabbit aorta rings. Kind of experiment: Vasorelaxant action in vitro (phenylephrine-contracted rabbit aortic rings). Particulars: Oryctolagus cuniculus, phenylephrine-induced contraction, organ bath 37° C., 0.1% DMSO, read-out: IC50 (concentration needed to reduce the magnitude of the control contraction by 50%). On the procedure: B-1. Vasorelaxant Action In Vitro
Rabbits are stunned by a blow to the neck and exsanguinated. The aorta is removed, freed from adhering tissue and divided into rings of a width of 1.5 mm. The rings are placed individually under an initial tension in 5 ml organ baths with Krebs-Henseleit solution which is at 37° C., is gassed with carbogen and has the following composition (in each case mM): sodium chloride: 119; potassium chloride: 4.8; calcium chloride dihydrate: 1; magnesium sulfate heptahydrate: 1.4; potassium dihydrogenphosphate: 1.2; sodium bicarbonate: 25; glucose: 10. The contractile force is determined with Statham UC2 cells, amplified and digitalized using A/D transducers (DAS-1802 HC, Keithley Instruments Munich), and recorded in parallel on linear recorders. To obtain a contraction, phenylephrine is added to the bath cumulatively in increasing concentration. After several control cycles, the substance to be investigated is added in each further run in increasing dosage in each case, and the height of the contraction achieved is compared with the height of the contraction reached in the last preceding run. This is used to calculate the concentration needed to reduce the magnitude of the control value by 50% ([…]). The standard administration volume is 5 μl; the DMSO content in the bath solution corresponds to 0.1%.

As for `CC1(C)C(=O)Nc2nc(-c3nn(CCC(F)(F)C(F)(F)F)c4ncccc34)nnc21` [Example 1, 7,7-Dimethyl-3-[1-(3,3,4,4,4-pentafluorobutyl)-1H-pyrazolo[3,4-b]pyridin-3-yl]-5,7-dihydro-6H-pyrrolo[2,3-e][1,2,4]triazin-6-one], the minimal effective concentration in experiment [1] was 0.3 µM. The IC50 in the experiment on rabbit aorta rings came to 263 nM.
Taken in the same sequence, the figures for `CC1(C)C(=O)Nc2nc(-c3nn(CCC(F)(F)C(F)(F)F)c4ncc(F)cc34)nnc21` [Example 2, 3-[5-Fluoro-1-(3,3,4,4,4-pentafluorobutyl)-1H-pyrazolo[3,4-b]pyridin-3-yl]-7,7-dimethyl-5,7-dihydro-6H-pyrrolo[2,3-e][1,2,4]triazin-6-one] were 0.1 µM and 129 nM.
Taken in the same sequence, the figures for `CC1(C)C(=O)Nc2nc(-c3nn(CCC(F)(F)C(F)(F)F)c4ncccc34)ncc21` [Example 3, 5,5-Dimethyl-2-[1-(3,3,4,4,4-pentafluorobutyl)-1H-pyrazolo[3,4-b]pyridin-3-yl]-5,7-dihydro-6H-pyrrolo[2,3-d]pyrimidin-6-one] were 0.03 µM and 46 nM.
The corresponding values for `CC1(C)C(=O)Nc2nc(-c3nn(CCC(F)(F)C(F)(F)F)c4ncc(F)cc34)ncc21` [Example 4, 2-[5-Fluoro-1-(3,3,4,4,4-pentafluorobutyl)-1H-pyrazolo[3,4-b]pyridin-3-yl]-5,5-dimethyl-5,7-dihydro-6H-pyrrolo[2,3-d]pyrimidin-6-one] are 0.03 µM and 101 nM.
On to `CC1(C)C(=O)Nc2nc(-c3nn(CC4CCCC4)c4ncc(F)cc34)ncc21` [Example 5, 2-[1-(Cyclopentylmethyl)-5-fluoro-1H-pyrazolo[3,4-b]pyridin-3-yl]-5,5-dimethyl-5,7-dihydro-6H-pyrrolo[2,3-d]pyrimidin-6-one], for which the minimal effective concentration in experiment [1] amounted to 0.1 µM. Besides, the IC50 in the experiment with rabbit aorta rings was 23 nM.
For `CC1(C)C(=O)Nc2nc(-c3nn(CC4CCCC4)c4ncc(F)cc34)nnc21` [Example 6, 3-[1-(Cyclopentylmethyl)-5-fluoro-1H-pyrazolo[3,4-b]pyridin-3-yl]-7,7-dimethyl-5,7-dihydro-6H-pyrrolo[2,3-e][1,2,4]triazin-6-one], the minimal effective concentration in experiment [1] is 0.1 µM. Moreover, in the experiment on rabbit aorta rings, the IC50 was 102 nM.
With `CC1(C)C(=O)Nc2nc(-c3nn(CCC(F)(F)C(F)F)c4ncc(F)cc34)nnc21` [Example 7, 3-[5-Fluoro-1-(3,3,4,4-tetrafluorobutyl)-1H-pyrazolo[3,4-b]pyridin-3-yl]-7,7-dimethyl-5,7-dihydro-6H-pyrrolo[2,3-e][1,2,4]triazin-6-one], the minimal effective concentration in experiment [1] was found to be 0.3 µM.
Same read-out and setting: to `CC1(C)C(=O)Nc2nc(-c3nn(CC4CC(F)(F)C4)c4ncc(F)cc34)nnc21` [Example 8, 3-{1-[(3,3-Difluorocyclobutyl)methyl]-5-fluoro-1H-pyrazolo[3,4-b]pyridin-3-yl}-7,7-dimethyl-5,7-dihydro-6H-pyrrolo[2,3-e][1,2,4]triazin-6-one] belongs 3 µM.

These data come from US9090610B2, “Fluoroalkyl-substituted pyrazolopyridines and use thereof” (BAYER INTELLECTUAL PROPERTY GMBH, priority 2011, dated 2015).
